Laboratory results as given in patent publication US20030157062A1, “Method for exterminating termites” (priority 2000, published 2003).

Test system: Coptotemes formosanus
Test: Indoor testing of termiticidal effect of treated soil (Japan Wood Preserving Association standard number 13, 1992)
Type: in vivo
Method: The following tests (test numbers 1 to 16) were carried out based on testing methods and qualitative standards (I) for termiticidal effects of termiticide for soil treating (Japan Wood Preserving Association standard number 13, 1992). In the tests using entomopathogenic nematodes, operation of diffusive volatilization was not carried out.
The bottom portions of these two glass bottles are connected with a glass tube (3) of 15 mm in diameter and 100 mm in length.
In one of the glass bottles of the testing container, about 60 g of a non-treated soil (5) having an adjusted moisture content of about 25% is placed, and in the other glass bottle, about 3 g of Japanese red pine wood blocks are placed, and in the central 50 mm portion of the glass tube, a treated soil for testing (6) is placed.
In the glass bottle containing a non-treated soil, Coptotemes formosanus taken out from a nest was placed, and the upper portions of the glass bottles were covered with aluminum foil. Cumulative mortality rates after 0, 3, 5, 7, 10 and 14 days, respectively, were examined. […]

[1] = 10 ppm of insect-growth regulator singly in treated soil, 0 days elapsed
[2] = 10 ppm of insect-growth regulator singly in treated soil, 3 days elapsed
[3] = 10 ppm of insect-growth regulator singly in treated soil, 5 days elapsed
[4] = 10 ppm of insect-growth regulator singly in treated soil, 7 days elapsed
[5] = 10 ppm of insect-growth regulator singly in treated soil, 10 days elapsed
[6] = 10 ppm of insect-growth regulator singly in treated soil, 14 days elapsed
[7] = 20 ppm of insect-growth regulator singly in treated soil, 0 days elapsed
[8] = 20 ppm of insect-growth regulator singly in treated soil, 3 days elapsed
[9] = 20 ppm of insect-growth regulator singly in treated soil, 5 days elapsed
[10] = 20 ppm of insect-growth regulator singly in treated soil, 7 days elapsed
[11] = 20 ppm of insect-growth regulator singly in treated soil, 10 days elapsed
[12] = 20 ppm of insect-growth regulator singly in treated soil, 14 days elapsed
[13] = 50 ppm of insect-growth regulator singly in treated soil, 0 days elapsed
[14] = 50 ppm of insect-growth regulator singly in treated soil, 3 days elapsed
[15] = 50 ppm of insect-growth regulator singly in treated soil, 5 days elapsed
[16] = 50 ppm of insect-growth regulator singly in treated soil, 7 days elapsed
[17] = 50 ppm of insect-growth regulator singly in treated soil, 10 days elapsed
[18] = 50 ppm of insect-growth regulator singly in treated soil, 14 days elapsed

| Structure (SMILES) | Cumulative mortality rate (%) after a lapse of days [1] [%] | Cumulative mortality rate (%) after a lapse of days [2] [%] | Cumulative mortality rate (%) after a lapse of days [3] [%] | Cumulative mortality rate (%) after a lapse of days [4] [%] | Cumulative mortality rate (%) after a lapse of days [5] [%] | Cumulative mortality rate (%) after a lapse of days [6] [%] | Cumulative mortality rate (%) after a lapse of days [7] [%] | Cumulative mortality rate (%) after a lapse of days [8] [%] | Cumulative mortality rate (%) after a lapse of days [9] [%] | Cumulative mortality rate (%) after a lapse of days [10] [%] | Cumulative mortality rate (%) after a lapse of days [11] [%] | Cumulative mortality rate (%) after a lapse of days [12] [%] | Cumulative mortality rate (%) after a lapse of days [13] [%] | Cumulative mortality rate (%) after a lapse of days [14] [%] | Cumulative mortality rate (%) after a lapse of days [15] [%] | Cumulative mortality rate (%) after a lapse of days [16] [%] | Cumulative mortality rate (%) after a lapse of days [17] [%] | Cumulative mortality rate (%) after a lapse of days [18] [%] |
| --- | --- | --- | --- | --- | --- | --- | --- | --- | --- | --- | --- | --- | --- | --- | --- | --- | --- | --- |
| O=C(NC(=O)c1c(F)cccc1F)Nc1ccc(Cl)cc1 [Diflubenzuron, N-[[(4-chlorophenyl)amino]carbonyl]-2,6-difluorobenzamide] | 0 | 10 | 15 | 20 | 40 | 50 | 0 | 25 | 35 | 40 | 50 | 60 | 0 | 35 | 45 | 50 | 55 | 70 |
| O=C(NC(=O)c1c(F)cccc1F)Nc1cc(Cl)c(F)c(Cl)c1F [Teflubenzuron, N-[[(3,5-dichloro-2,4-difluorophenyl)amino]carbonyl]-2,6-difluorobenzamide] | 0 | 20 | 25 | 30 | 30 | 55 | 0 | 30 | 45 | 50 | 60 | 70 | 0 | 40 | 60 | 70 | 80 | 90 |
| O=C(NC(=O)c1c(F)cccc1F)Nc1ccc(OC(F)(F)C(F)OC(F)(F)F)c(Cl)c1 (centres unmarked) [novaluron, N-[[[3-chloro-4-(1,1,2-trifluoro-2-trifluoromethoxyethoxy)phenyl]amino]carbonyl]-2,6-difluorobenzamide] | 0 | 20 | 30 | 35 | 40 | 80 | 0 | 30 | 45 | 100 | – | – | 0 | 40 | 60 | 100 | – | – |
